# Columns and labels:
# ARG = molecular target: T1, ARG (Homo sapiens, UniProt P42684); assay: Kinase inhibition profiling ARG (ELISA); assay type: biochemical; note: ATP 5 µM
# T1 construct: made in house; host or cells: baculovirus expression system
# Experimental: (§1) Each test compound was weighed and dissolved in DMSO to make 1 mM stock solution. The stock solution was diluted with DMSO to achieve 20 μM. The compound solution was diluted with the assay buffer to achieve 0.8 μM.
# MER = molecular target: T2, MER (Homo sapiens, UniProt Q12866); assay: Kinase inhibition profiling MER (ELISA); assay type: biochemical
# T2 construct: made in house; host or cells: baculovirus expression system
# Experimental: as §1
# EphA2 = molecular target: T3, EphA2 (Homo sapiens, UniProt P29317); assay: Kinase inhibition profiling EphA2 (ELISA); assay type: biochemical
# T3 construct: made in house; host or cells: baculovirus expression system
# Experimental: as §1
# FAK = molecular target: T4, FAK (Homo sapiens, UniProt Q05397); assay: Kinase inhibition profiling FAK (ELISA); assay type: biochemical
# T4 construct: made in house; host or cells: baculovirus expression system
# Experimental: as §1
# FGFR2 = molecular target: T5, FGFR2 (Homo sapiens, UniProt P21802); assay: Kinase inhibition profiling FGFR2 (ELISA); assay type: biochemical; note: ATP 20 µM
# T5 construct: Cytoplasmic domain of human FGFR2 [399-821 amino; made in house; host or cells: baculovirus expression system
# Experimental: as §1
# IGF1R = molecular target: T6, IGF1R (Homo sapiens, UniProt P08069); assay: Kinase inhibition profiling IGF1R (ELISA); assay type: biochemical
# T6 construct: Cytoplasmic domain of human IGF1R [959-1367 amino; made in house; host or cells: baculovirus expression system
# Experimental: as §1
# INSR = molecular target: T7, INSR (Homo sapiens, UniProt P06213); assay: Kinase inhibition profiling INSR (ELISA); assay type: biochemical
# T7 construct: Kinase domain (KD) of human INSR [1005-1310 amino; His (N, cleaved yes); made in house; host or cells: baculovirus expression system
# T7 sequence (P06213 1005-1310): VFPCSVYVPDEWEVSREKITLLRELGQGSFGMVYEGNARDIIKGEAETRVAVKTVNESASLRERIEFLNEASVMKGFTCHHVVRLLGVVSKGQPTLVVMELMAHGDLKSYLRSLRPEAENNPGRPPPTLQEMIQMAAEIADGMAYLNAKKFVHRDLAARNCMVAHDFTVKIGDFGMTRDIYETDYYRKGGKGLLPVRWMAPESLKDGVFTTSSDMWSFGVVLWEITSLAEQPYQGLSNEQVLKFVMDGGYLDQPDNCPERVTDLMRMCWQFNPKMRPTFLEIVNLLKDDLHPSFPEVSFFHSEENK
# Experimental: as §1
# JAK1 = molecular target: T8, JAK1 (Homo sapiens, UniProt P23458); assay: Kinase inhibition profiling JAK1 (ELISA); assay type: biochemical
# T8 construct: Kinase domain (KD) of human JAK1 [838-1142 amino; made in house; host or cells: baculovirus expression system
# T8 sequence (P23458 850-1154): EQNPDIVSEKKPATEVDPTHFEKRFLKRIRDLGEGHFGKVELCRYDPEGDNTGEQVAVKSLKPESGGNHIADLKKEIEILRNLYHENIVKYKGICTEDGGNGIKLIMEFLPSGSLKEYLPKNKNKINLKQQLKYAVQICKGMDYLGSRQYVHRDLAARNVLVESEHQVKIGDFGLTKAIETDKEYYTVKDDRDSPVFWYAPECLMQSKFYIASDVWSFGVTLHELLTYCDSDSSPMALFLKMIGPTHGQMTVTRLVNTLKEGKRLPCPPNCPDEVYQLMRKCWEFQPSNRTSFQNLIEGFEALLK
# Experimental: as §1
# JAK2 = molecular target: T9, JAK2 (Homo sapiens, UniProt O60674); assay: Kinase inhibition profiling JAK2 (ELISA); assay type: biochemical
# T9 construct: Kinase domain (KD) of human JAK2 [826-1132 amino; made in house; host or cells: baculovirus expression system
# T9 sequence (O60674 826-1132): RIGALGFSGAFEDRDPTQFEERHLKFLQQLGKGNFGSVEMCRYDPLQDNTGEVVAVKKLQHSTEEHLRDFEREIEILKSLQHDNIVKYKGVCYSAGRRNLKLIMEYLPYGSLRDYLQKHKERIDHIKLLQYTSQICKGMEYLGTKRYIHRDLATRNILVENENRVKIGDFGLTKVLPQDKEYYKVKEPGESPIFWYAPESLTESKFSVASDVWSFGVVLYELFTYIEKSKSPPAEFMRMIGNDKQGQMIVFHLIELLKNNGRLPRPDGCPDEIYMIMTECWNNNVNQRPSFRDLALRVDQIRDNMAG
# Experimental: as §1
# JAK3 = molecular target: T10, JAK3 (Homo sapiens, UniProt P52333); assay: Kinase inhibition profiling JAK3 (ELISA); assay type: biochemical; note: ATP 5 µM
# T10 construct: Kinase domain (KD) of human JAK3 [795-1124 amino; made in house; host or cells: baculovirus expression system
# T10 sequence (P52333 795-1124): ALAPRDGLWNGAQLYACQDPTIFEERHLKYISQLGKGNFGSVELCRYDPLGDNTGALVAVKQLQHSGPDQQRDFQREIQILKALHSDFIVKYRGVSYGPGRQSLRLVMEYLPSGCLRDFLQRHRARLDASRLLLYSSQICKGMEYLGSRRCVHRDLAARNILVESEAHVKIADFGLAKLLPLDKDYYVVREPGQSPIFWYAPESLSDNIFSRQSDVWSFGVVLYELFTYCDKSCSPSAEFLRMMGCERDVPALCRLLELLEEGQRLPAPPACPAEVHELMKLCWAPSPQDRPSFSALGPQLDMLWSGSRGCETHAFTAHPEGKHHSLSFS
# Experimental: as §1
# TYK2 = molecular target: T11, TYK2 (Homo sapiens, UniProt P29597); assay: Kinase inhibition profiling TYK2 (ELISA); assay type: biochemical
# T11 construct: Kinase domain (KD) of human TYK2 [871-1187 amino; made in house; host or cells: baculovirus expression system
# T11 sequence (P29597 871-1187): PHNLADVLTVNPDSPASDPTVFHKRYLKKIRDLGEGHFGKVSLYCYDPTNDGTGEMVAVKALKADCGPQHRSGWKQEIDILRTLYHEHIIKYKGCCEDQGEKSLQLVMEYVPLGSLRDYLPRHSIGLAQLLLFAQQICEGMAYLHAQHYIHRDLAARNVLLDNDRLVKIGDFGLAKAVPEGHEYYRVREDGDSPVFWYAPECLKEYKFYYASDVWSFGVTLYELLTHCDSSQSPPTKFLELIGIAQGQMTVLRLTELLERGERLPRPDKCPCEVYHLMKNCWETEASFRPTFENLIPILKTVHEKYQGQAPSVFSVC
# Experimental: as §1
# MET = molecular target: T12, MET (Homo sapiens, UniProt P08581); assay: Kinase inhibition profiling MET (ELISA); assay type: biochemical; note: ATP 20 µM
# T12 construct: made in house; host or cells: baculovirus expression system
# Experimental: as §1
# KIT = molecular target: T13, KIT (Homo sapiens, UniProt P10721); assay: Kinase inhibition profiling KIT (ELISA); assay type: biochemical
# T13 construct: made in house; host or cells: baculovirus expression system
# T13 sequence (P10721 544-976): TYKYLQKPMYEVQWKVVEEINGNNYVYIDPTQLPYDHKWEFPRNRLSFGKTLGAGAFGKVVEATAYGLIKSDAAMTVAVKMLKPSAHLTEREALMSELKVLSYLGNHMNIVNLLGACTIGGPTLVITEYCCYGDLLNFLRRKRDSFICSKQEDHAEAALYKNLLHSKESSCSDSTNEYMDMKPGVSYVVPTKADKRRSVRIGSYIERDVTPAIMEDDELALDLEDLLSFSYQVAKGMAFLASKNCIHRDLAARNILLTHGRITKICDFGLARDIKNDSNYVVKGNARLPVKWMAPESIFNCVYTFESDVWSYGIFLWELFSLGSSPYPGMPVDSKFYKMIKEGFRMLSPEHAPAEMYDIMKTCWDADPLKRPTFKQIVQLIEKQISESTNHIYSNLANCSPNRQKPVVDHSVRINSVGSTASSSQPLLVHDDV
# Experimental: as §1
# PDGFRα = molecular target: T14, PDGFRα (Homo sapiens, UniProt P16234); assay: Kinase inhibition profiling PDGFRα (ELISA); assay type: biochemical
# T14 construct: Cytoplasmic domain of human PDGFRα [550-1089; made in house; host or cells: baculovirus expression system
# Experimental: as §1
# PDGFRβ = molecular target: T15, PDGFRβ (Homo sapiens, UniProt P09619); assay: Kinase inhibition profiling PDGFRβ (ELISA); assay type: biochemical
# T15 construct: Cytoplasmic domain of human PDGFRβ [557-1106 amino; made in house; host or cells: baculovirus expression system
# T15 sequence (P09619 557-1106): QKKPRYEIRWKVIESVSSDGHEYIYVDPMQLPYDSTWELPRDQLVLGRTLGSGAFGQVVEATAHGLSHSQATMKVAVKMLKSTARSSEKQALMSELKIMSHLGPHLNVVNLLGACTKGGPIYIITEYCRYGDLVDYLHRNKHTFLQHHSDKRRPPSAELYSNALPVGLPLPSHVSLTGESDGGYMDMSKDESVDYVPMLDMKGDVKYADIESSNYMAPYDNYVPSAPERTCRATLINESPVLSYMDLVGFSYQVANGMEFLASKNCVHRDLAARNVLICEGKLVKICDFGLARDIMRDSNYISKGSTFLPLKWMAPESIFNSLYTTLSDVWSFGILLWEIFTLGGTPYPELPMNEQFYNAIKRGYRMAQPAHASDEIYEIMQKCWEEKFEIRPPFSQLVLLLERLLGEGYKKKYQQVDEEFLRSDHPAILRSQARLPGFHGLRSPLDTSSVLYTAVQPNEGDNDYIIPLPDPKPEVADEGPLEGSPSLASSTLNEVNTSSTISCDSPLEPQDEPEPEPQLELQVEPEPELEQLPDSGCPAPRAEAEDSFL
# Experimental: as §1
# RET = molecular target: T16, RET (Homo sapiens, UniProt P07949); assay: Kinase inhibition profiling RET (ELISA); assay type: biochemical; note: ATP 5 µM
# T16 construct: Cytoplasmic domain of human RET [658-1114 amino acids; made in house; host or cells: baculovirus expression system
# Experimental: as §1
# BLK = molecular target: T17, BLK (Homo sapiens, UniProt P51451); assay: Kinase inhibition profiling BLK (ELISA); assay type: biochemical
# T17 construct: made in house; host or cells: baculovirus expression system
# Experimental: as §1
# HCK = molecular target: T18, HCK (Homo sapiens, UniProt P08631); assay: Kinase inhibition profiling HCK (ELISA); assay type: biochemical; note: ATP 20 µM
# T18 construct: made in house; host or cells: baculovirus expression system
# T18 sequence (P08631 73-526): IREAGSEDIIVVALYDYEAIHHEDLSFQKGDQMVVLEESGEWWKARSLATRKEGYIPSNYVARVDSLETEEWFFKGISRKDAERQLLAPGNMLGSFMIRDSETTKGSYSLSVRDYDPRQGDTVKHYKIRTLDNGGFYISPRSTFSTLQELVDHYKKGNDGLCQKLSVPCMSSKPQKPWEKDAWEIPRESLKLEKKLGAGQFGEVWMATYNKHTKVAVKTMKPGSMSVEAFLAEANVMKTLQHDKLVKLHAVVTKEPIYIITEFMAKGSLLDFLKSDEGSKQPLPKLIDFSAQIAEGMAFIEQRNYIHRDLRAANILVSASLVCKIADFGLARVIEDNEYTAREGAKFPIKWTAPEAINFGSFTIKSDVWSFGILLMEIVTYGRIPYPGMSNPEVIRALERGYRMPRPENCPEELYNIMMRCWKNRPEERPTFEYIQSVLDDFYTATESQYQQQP
# Experimental: (§2) In particular, the target kinases were Tyrosine kinases and Serine/Threonine kinases.
# as §1
# YES = molecular target: T19, YES (Homo sapiens, UniProt P07947); assay: Kinase inhibition profiling YES (ELISA); assay type: biochemical
# T19 construct: made in house; host or cells: baculovirus expression system
# T19 sequence (P07947 whole entry): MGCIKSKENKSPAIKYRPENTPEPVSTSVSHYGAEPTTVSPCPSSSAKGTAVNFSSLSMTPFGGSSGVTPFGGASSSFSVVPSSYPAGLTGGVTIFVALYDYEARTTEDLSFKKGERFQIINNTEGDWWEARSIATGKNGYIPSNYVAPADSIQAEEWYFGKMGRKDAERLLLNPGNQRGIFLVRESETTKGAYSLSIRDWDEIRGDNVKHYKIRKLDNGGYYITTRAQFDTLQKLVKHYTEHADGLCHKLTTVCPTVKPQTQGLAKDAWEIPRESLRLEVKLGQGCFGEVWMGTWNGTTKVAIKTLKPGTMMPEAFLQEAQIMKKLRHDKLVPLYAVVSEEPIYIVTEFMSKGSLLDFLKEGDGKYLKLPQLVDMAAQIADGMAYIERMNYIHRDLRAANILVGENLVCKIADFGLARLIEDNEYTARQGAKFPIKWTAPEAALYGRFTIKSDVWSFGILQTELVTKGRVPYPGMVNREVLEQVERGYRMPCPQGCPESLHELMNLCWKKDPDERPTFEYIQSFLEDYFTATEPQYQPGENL
# Experimental: as §2, §1
# PKCγ = molecular target: T20, PKCγ (Homo sapiens, UniProt P05129); assay: Kinase inhibition profiling PKCγ (IMAP); assay type: biochemical
# T20 construct: made in house; host or cells: baculovirus expression system
# Experimental: as §1
# CHK1 = molecular target: T21, CHK1 (Homo sapiens, UniProt O14757); assay: Kinase inhibition profiling CHK1 (IMAP); assay type: biochemical
# T21 construct: His (N); made in house; host or cells: baculovirus expression system
# Experimental: as §1
# MAPKAPK2 = molecular target: T22, MAPKAPK2 (Homo sapiens, UniProt P49137); assay: Kinase inhibition profiling MAPKAPK2 (IMAP); assay type: biochemical
# T22 construct: His (N); made in house; host or cells: baculovirus expression system
# Experimental: as §1
# Erk1 = molecular target: T23, Erk1 (Homo sapiens, UniProt P27361); assay: Kinase inhibition profiling Erk1 (IMAP); assay type: biochemical
# T23 construct: Human Erk1 containing 379 amino acids was expressed; His (N); made in house; host or cells: E. coli
# Experimental: as §1
# IKKβ = molecular target: T24, IKKβ (Homo sapiens, UniProt O14920); assay: Kinase inhibition profiling IKKβ (IMAP); assay type: biochemical
# T24 construct: Human IKKβ with 662 amino acids were expressed; His (N); made in house; host or cells: insect cells
# Experimental: as §1
# MAP2K7 = molecular target: T25, MAP2K7 (Homo sapiens, UniProt O14733, S271E/S277E/T275E); assay: Kinase inhibition profiling MAP2K7 (AlphaScreen, cascade); assay type: biochemical
# T25 construct: T275E, S277E] derived from wild type [419 amino acids; GST (N); made in house; host or cells: E. coli
# From the text: AlphaScreen Assay [drawing 4]
# [1] = system: bovine aorta smooth muscle cells (BASMC); assay: Chemotaxis assay, fMLP-induced migration (modified Boyden chambers); assay type: cell-based; conditions: K-252a 3, 10, 30, 100 nM; fMLP 0.1 μM; overnight migration
# Experimental: Chemotaxis assays were performed using a well known and validated protocol (1). Modified Boyden chambers were used with filters having 5-8 μm pore size and treated with collagen I (100 μg/ml in 0.5 M acetic acid) and fibronectin (10 μg/ml, Roche). BASMC (bovine aorta smooth muscle cells) were cultured in serum-free DMEM and a sample of 20,000-40,000 cells was added to the upper well of a Boyden chamber. […] Overnight cell migration was allowed at 37+/−0.5° C., then cells were scraped off and filters were fixed in methanol and stained in a solution of 10% crystal violet in 20% methanol. All experiments were performed at least twice in triplicate. […] Random cell migration, i.e. migration in the absence of chemoattractant, was given the arbitrary value of 100%. Statistical analysis was performed using Student's t test for pairwise comparisons of treatment, or an ANOVA model for the evaluation of treatments with increasing concentrations of a reagent.
# HMGB1 = molecular target: T26, HMGB1 (Homo sapiens, UniProt P09429); assay: Fluorescence assays of K-252a/HMGB1 interaction; assay type: binding
# T26 construct: host or cells: bacteria (inferred from the mention of bacterial contaminants)
# T26 sequence (P09429 whole entry, species assumed): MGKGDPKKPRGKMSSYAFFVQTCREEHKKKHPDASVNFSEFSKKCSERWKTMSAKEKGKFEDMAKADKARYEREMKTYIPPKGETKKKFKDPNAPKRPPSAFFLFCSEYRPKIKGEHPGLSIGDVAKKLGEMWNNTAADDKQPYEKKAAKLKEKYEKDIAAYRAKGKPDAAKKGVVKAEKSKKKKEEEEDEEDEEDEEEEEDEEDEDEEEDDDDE
# T2 sequence (Q12866 528-999): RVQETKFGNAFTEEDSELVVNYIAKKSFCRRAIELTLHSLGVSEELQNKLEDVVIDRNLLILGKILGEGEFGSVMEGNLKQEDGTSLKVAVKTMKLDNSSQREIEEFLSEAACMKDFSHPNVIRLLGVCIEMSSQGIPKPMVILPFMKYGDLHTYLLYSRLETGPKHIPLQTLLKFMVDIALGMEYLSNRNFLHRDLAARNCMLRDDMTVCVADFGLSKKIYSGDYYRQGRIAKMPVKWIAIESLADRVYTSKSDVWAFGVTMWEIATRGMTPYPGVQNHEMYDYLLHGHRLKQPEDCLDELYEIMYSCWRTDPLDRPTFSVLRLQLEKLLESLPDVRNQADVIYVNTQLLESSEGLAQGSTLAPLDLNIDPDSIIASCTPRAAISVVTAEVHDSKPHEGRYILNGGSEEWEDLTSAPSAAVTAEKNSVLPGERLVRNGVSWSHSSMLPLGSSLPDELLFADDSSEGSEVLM
compound,measurement,setting,value
COC(=O)[C@]1(O)CC2O[C@@]1(C)n1c3ccccc3c3c4c(c5c6ccccc6n2c5c31)C(=O)NC4 [K-252a],inhibition at 0.2 µM,ARG,0.1%
same,inhibition at 0.2 µM,MER,80.8%
same,inhibition at 0.2 µM,EphA2,8.9%
same,inhibition at 0.2 µM,FAK,53.5%
same,inhibition at 0.2 µM,FGFR2,67.2%
same,inhibition at 0.2 µM,IGF1R,40.6%
same,inhibition at 0.2 µM,INSR,38%
same,inhibition at 0.2 µM,JAK1,83.1%
same,inhibition at 0.2 µM,JAK2,99.5%
same,inhibition at 0.2 µM,JAK3,100%
same,inhibition at 0.2 µM,TYK2,98.1%
same,inhibition at 0.2 µM,MET,83.2%
same,inhibition at 0.2 µM,KIT,87.3%
same,inhibition at 0.2 µM,PDGFRα,96.1%
same,inhibition at 0.2 µM,PDGFRβ,98.1%
same,inhibition at 0.2 µM,RET,94.2%
same,inhibition at 0.2 µM,BLK,83.5%
same,inhibition at 0.2 µM,HCK,68.2%
same,inhibition at 0.2 µM,YES,65.1%
same,inhibition at 0.2 µM,PKCγ,53.3%
same,inhibition at 0.2 µM,CHK1,92.8%
same,inhibition at 0.2 µM,MAPKAPK2,44.3%
same,inhibition at 0.2 µM,Erk1,32%
same,inhibition at 0.2 µM,IKKβ,2.7%
same,inhibition at 0.2 µM,MAP2K7,68.2%
same,cell migration induced by fMLP,[1],"does not interfere with cell migration induced by fMLP, whatever the concentration tested"
same,direct interaction between K-252a and HMGB1,HMGB1,absence of a direct interaction
